Results published in patent US10857199B2, “Compounds and methods for increasing hair growth” (The University of Kansas, priority 2014, dated 2020).

Legend:
[1] = femurs, 3D μCT, castrated male mice
Method: (§1) To exploit this pathway we used B6CBAF1/J hybrid male mice reported to be susceptible to ADA. As a control and to remove background testosterone effects all the B6CBAF1/J hybrid male mice were castrated and split into two groups (n=6). The first group served as controls (Vehicle) and the second experimental group was treated with 5-α-dihydrotestosterone (5α-DHT). The 5α-DHT was administered by sub-dermal transplantation of slow release pellets purchased from Innovative Research of America. The control group was also transplanted with identically formulated placebo pellets (without 5α-DHT). Both pellets were transplanted below the right ear using a small incision that was sealed with staples. Specifically, two 21 day release and one 90 day release pellets containing 10 mg of 5α-DHT respectively were used for each experimental mouse with corresponding placebo pellets for the controls (n=6). Hair loss of the mice and the effects of 5α-DHT were then monitored over 5 months as described below.

hair loss = conditions: castrated male mice
Method: as §1

[2] = castrated male mice
Method: as §1
FIGS. 8A-8B includes DEXA analysis pictures of representative Vehicle and 5α-DHT male castrated mice showing increased bone and lean mass with treated mice. […] Two-way ANOVA analysis of the temporal weight change show significant differences for 5α-DHT treatment (p<0.0001) and change over time (p<0.0001) with no significant interaction (n=6). This confirms 5α-DHT pellet infusion was effective (see also below).
Detailed quantitative analyses of the DEXA experiments are presented graphically in FIG. 9. […] Total and femur analyses are shown and the numbers shown on the histograms above the asterisks (*) are p values calculated using a two-tailed unpaired t test at 95% confidence intervals. A P<0.05 is considered significant and NS indicates not significant.

hair density = conditions: hair plucked from defined ROI, castrated male mice, vs placebo
Excerpt: A second method was then used to directly quantitate hair density, hair quality and vellus hair occurrence. Specifically, mice were sacrificed and the pelts removed and fixed in buffered formalin for histology. Also, a plastic template with a fixed portal was used to demarcate a defined and identical region of interest (ROI) between the ears and above the shoulder blades (FIG. 12). Hair was then plucked from this region weighed and microscopically analyzed. […] A plastic template with portal removed was used to facilitate hair removal from defined region of interest (ROI). Top pictures comparing control (right) and experimental (left) hairs removed from the ROI. […] The numbers shown on the histograms above the asterisk (*) is the p value calculated using a two-tailed unpaired t test at 95% confidence intervals. A P<0.05 is considered significant.

C[C@]12CCC(=O)C[C@@H]1CC[C@@H]1[C@@H]2CC[C@]2(C)[C@@H](O)CC[C@@H]12 [5α-DHT, 5-α-dihydrotestosterone]
cancellous bone and trabecular architecture at the top of the epiphyses [1]: major increases
hair loss from head and shoulder blade region (inverse integrated pixel density) (hair loss; 5 months, inflection point after 2 months): accelerated hair loss
hair at the pellet implant site (hair loss; photographs, vs placebo pellet): major hair loss
Bone Mineral Content [BMC] ([2]; DEXA, vs placebo pellets): major increases
Bone mineral Density [BMD] ([2]; DEXA, vs placebo pellets): major increases
lean mass ([2]; DEXA, vs vehicle): increased
lean/fat mass ratios ([2]; DEXA, vs vehicle): increased
weight ([2]; sub-dermal slow release pellets, 5 months, vs placebo pellets): major increases
hair density, size and quality (hair density): significantly reduced
